Laboratory results: patent publication US11840533B2, “Pyridinone-based epigenetic modifiers and uses thereof” (THE BOARD OF TRUSTEES OF THE UNIVERSITY OF ILLINOIS, priority 2017, dated 2023)
pIC50: −log10 of the molar value.

Each compound was assayed on fulvestrant-resistant MCF7:5C-FR cells (assay: Fulvestrant-resistant breast cancer cell viability (cell proliferation) assay). Conditions: 120 h, growth inhibition in fulvestrant-resistant MCF-7:CFR cells, 120 hrs.
Type: cell-based
Description: For the cell proliferation assay, the fulvestrant-resistant MCF7:5C-FR cells were seeded at about 2000 to about 2500/well in 96-well plates. The next day, compounds were add to the cells at desired serial concentrations form 3 nM to 10 uM. A final 0.1% (v/v) DMSO was used as vehicle control and 1 uM JQ1 was used as positive. The cell were grown in the normal culture condition for 120 hrs. Then the Hoechst 33342 dye were add to each well at a final concentration of 5 μg/ml, and put back to the incubator at 37 C for 90 min. The plates were scanned immediately after the incubation with Celigo (Nexcelcom Biocesnse) for the fluorescence of the nuclear using DAPI channel, and the cell number was counted thought the analysis function of the Celigo software. The normalized cell number to the vehicle control was used to represent the cell proliferation. […] N.D.=Not determined.

SMILES | pIC50
CCS(=O)(=O)Nc1cc(-c2cn(C)c3c(O)nccc23)cc2c1ccn2Cc1cc(Cl)c(O)cc1C [Compound 55, N-(1-(5-chloro-4-hydroxy-2-methylbenzyl)-6-(7-hydroxy-1-methyl-1H-pyrrolo[2,3-c]pyridin-3-yl)-1H-indol-4-yl)ethanesulfonamide] | < 7.00
Cn1cc(-c2cc(C(C)(C)O)c3ccn(C(C)(c4cnccn4)c4cnccn4)c3c2)c2cc[nH]c(=O)c21 [Compound 109, 3-(1-(1,1-di(pyrazin-2-yl)ethyl)-4-(2-hydroxypropan-2-yl)-1H-indol-6-yl)-1-methyl-1,6-dihydro-7H-pyrrolo[2,3-c]pyridin-7-one] | > 6.00
Cn1cc(-c2cc3c(NS(C)(=O)=O)cccc3n2[C@@H](c2ccccc2)C2CCOCC2)c2ccnc(O)c21 [Compound 123, (R)-N-(2-(7-hydroxy-1-methyl-1H-pyrrolo[2,3-c]pyridin-3-yl)-1-(phenyl(tetrahydro-2H-pyran-4-yl)methyl)-1H-indol-4-yl)methanesulfonamide] | > 6.00
CCS(=O)(=O)Nc1cc(-c2cn(C)c3c(O)nccc23)cc2c1ccn2Cc1ccc(O)c(Cl)c1 [Compound 54, N-(1-(3-chloro-4-hydroxybenzyl)-6-(7-hydroxy-1-methyl-1H-pyrrolo[2,3-c]pyridin-3-yl)-1H-indol-4-yl)ethanesulfonamide] | < 7.00
CCS(=O)(=O)Nc1cc(-c2cn(C)c3c(O)nccc23)cc2c1ccn2Cc1cc(Cl)cc(CCN(C)C)c1 [Compound 57, N-(1-(3-chloro-5-(2-(dimethylamino)ethyl)benzyl)-6-(7-hydroxy-1-methyl-1H-pyrrolo[2,3-c]pyridin-3-yl)-1H-indol-4-yl)ethanesulfonamide] | < 7.00
CS(=O)(=O)Nc1cc(-c2cn(CC3CO3)c3c(O)nccc23)cc2c1ccn2Cc1ccccc1 (stereo not drawn) [Compound 98, N-(1-benzyl-6-(7-hydroxy-1-(oxiran-2-ylmethyl)-1H-pyrrolo[2,3-c]pyridin-3-yl)-1H-indol-4-yl)methanesulfonamide] | > 6.00
CCS(=O)(=O)c1cccc2c1cc(-c1cn(C)c3c(O)nccc13)n2[C@H](c1ccccc1)C1CCOCC1 [Compound 120, (S)-3-(4-(ethylsulfonyl)-1-(phenyl(tetrahydro-2H-pyran-4-yl)methyl)-1H-indol-2-yl)-1-methyl-1H-pyrrolo[2,3-c]pyridin-7-ol] | > 6.00
Cn1cc(-c2c[nH]c3ccc(Br)cc23)c2ccnc(O)c21 [Compound 19, 3-(5-bromo-1H-indol-3-yl)-1-methyl-1H-pyrrolo[2,3-c]pyridin-7-ol] | < 6.00
CCS(=O)(=O)Nc1cc(-c2cn(C)c3c(O)nccc23)cc2c1ccn2Cc1ccccc1C(F)(F)F [Compound 59, N-(6-(7-hydroxy-1-methyl-1H-pyrrolo[2,3-c]pyridin-3-yl)-1-(2-(trifluoromethyl)benzyl)-1H-indol-4-yl)ethanesulfonamide] | < 7.00
Cn1cc(-c2cc3c(C(C)(C)O)cccc3n2[C@@H](c2ccccc2)C2CCOCC2)c2ccnc(O)c21 [Compound 116, (R)-3-(4-(2-hydroxypropan-2-yl)-1-(phenyl(tetrahydro-2H-pyran-4-yl)methyl)-1H-indol-2-yl)-1-methyl-1H-pyrrolo[2,3-c]pyridin-7-ol] | > 6.00
CCS(=O)(=O)Nc1cc(-c2cn(C)c3c(O)nccc23)cc2c1ccn2Cc1ccc(C#N)cc1 [Compound 58, N-(1-(4-cyanobenzyl)-6-(7-hydroxy-1-methyl-1H-pyrrolo[2,3-c]pyridin-3-yl)-1H-indol-4-yl)ethanesulfonamide] | > 6.00
CCS(=O)(=O)Nc1cc(-c2cn(C)c3c(=O)[nH]ccc23)cc2c1ccn2C(C)(c1cnccn1)c1cnccn1 [Compound 76, N-(1-(1,1-di(pyrazin-2-yl)ethyl)-6-(7-hydroxy-1-methyl-1H-pyrrolo[2,3-c]pyridin-3-yl)-1H-indol-4-yl)ethanesulfonamide] | > 6.00
CCS(=O)(=O)Nc1cc(-c2cn(CCCl)c3c(O)nccc23)cc2c1ccn2Cc1ccc(F)cc1 [Compound 80, N-(6-(1-(2-chloroethyl)-7-hydroxy-1H-pyrrolo[2,3-c]pyridin-3-yl)-1-(4-fluorobenzyl)-1H-indol-4-yl)ethanesulfonamide] | < 7.00
Cc1cc(F)cc(C)c1Cn1ccc2c(C(C)(C)O)cc(-c3cn(C)c4c(=O)[nH]ccc34)cc21 [Compound 108, 3-(1-(4-fluoro-2,6-dimethylbenzyl)-4-(2-hydroxypropan-2-yl)-1H-indol-6-yl)-1-methyl-1,6-dihydro-7H-pyrrolo[2,3-c]pyridin-7-one] | > 6.00
Cn1cc(-c2cc(NS(C)(=O)=O)c3ccn(CC4CC(F)(F)C4)c3c2)c2cc[nH]c(=O)c21 [Compound 73, N-(1-((3,3-difluorocyclobutyl)methyl)-6-(1-methyl-7-oxo-6,7-dihydro-1H-pyrrolo[2,3-c]pyridin-3-yl)-1H-indol-4-yl)methanesulfonamide] | 7.21
CCS(=O)(=O)Nc1cc(-c2cn(C)c3c(O)nccc23)cc2c1ccn2Cc1ccc(F)cc1Cl [Compound 26, N-(1-(2-chloro-4-fluorobenzyl)-6-(7-hydroxy-1-methyl-1H-pyrrolo[2,3-c]pyridin-3-yl)-1H-indol-4-yl)ethanesulfonamide] | > 6.70
CCS(=O)(=O)Nc1cccc2c1nc(-c1cn(C)c3c(O)nccc13)n2Cc1ccc(F)cc1 [Compound 40, N-(1-(4-fluorobenzyl)-2-(7-hydroxy-1-methyl-1H-pyrrolo[2,3-c]pyridin-3-yl)-1H-benzo[d]imidazol-4-yl)ethanesulfonamide] | > 6.00
Cn1cc(-c2cc(C(C)(C)O)c3ccn(CC4(C)COC4)c3c2)c2cc[nH]c(=O)c21 [Compound 105, 3-(4-(2-hydroxypropan-2-yl)-1-((3-methyloxetan-3-yl)methyl)-1H-indol-6-yl)-1-methyl-1,6-dihydro-7H-pyrrolo[2,3-c]pyridin-7-one] | > 6.00
Cn1ccc2ccnc(O)c21 [Compound 1, 1-methyl-1H-pyrrolo[2,3-c]pyridin-7-ol] | < 5.30

The remaining lines, values ahead:

pIC50 | SMILES
> 6.00 | CCS(=O)(=O)Nc1cc(-c2cn(C)c3c(O)nccc23)cc2c1ccn2Cc1cc(Cl)ccc1Cl [Compound 52, N-(1-(2,5-dichlorobenzyl)-6-(7-hydroxy-1-methyl-1H-pyrrolo[2,3-c]pyridin-3-yl)-1H-indol-4-yl)ethanesulfonamide]
> 6.00 | CC(C)C(=O)Nc1cccc2c1cc(-c1cn(C)c3c(O)nccc13)n2[C@@H](c1ccccc1)C1CCOCC1 [Compound 124, (R)-N-(2-(7-hydroxy-1-methyl-1H-pyrrolo[2,3-c]pyridin-3-yl)-1-(phenyl(tetrahydro-2H-pyran-4-yl)methyl)-1H-indol-4-yl)isobutyramide]
> 6.00 | CC(C)C(=O)Nc1cccc2c1cc(-c1cn(C)c3c(O)nccc13)n2[C@H](c1ccccc1)C1CCOCC1 [Compound 125, (S)-N-(2-(7-hydroxy-1-methyl-1H-pyrrolo[2,3-c]pyridin-3-yl)-1-(phenyl(tetrahydro-2H-pyran-4-yl)methyl)-1H-indol-4-yl)isobutyramide]
> 6.30 | CCS(=O)(=O)Nc1cc(-c2cn(C)c3c(O)nccc23)cc2c1cnn2Cc1ccc(F)cc1Cl [Compound 35, N-(1-(2-chloro-4-fluorobenzyl)-6-(7-hydroxy-1-methyl-1H-pyrrolo[2,3-c]pyridin-3-yl)-1H-indazol-4-yl)ethanesulfonamide]
> 6.00 | CCS(=O)(=O)Nc1cc(-c2cn(C)c3c(O)nccc23)cc2c1ncn2[C@H](c1ccccc1)C1CCOCC1 [Compound 64, (S)-N-(6-(7-hydroxy-1-methyl-1H-pyrrolo[2,3-c]pyridin-3-yl)-1-(phenyl(tetrahydro-2H-pyran-4-yl)methyl)-1H-benzo[d]imidaol-4-yl)ethanesulfonamide]
< 6.00 | O=C(c1cccc(-c2ccc(F)cc2)c1)c1c[nH]c2c(O)nccc12 [Compound 3, (4′-fluoro-[1,1′-biphenyl]-3-yl)(7-hydroxy-1H-pyrrolo[2,3-c]pyridin-3-yl)methanone]
< 6.00 | Cn1cc(-c2c[nH]c3ccc(-c4ccc(F)cc4)cc23)c2ccnc(O)c21 [Compound 17, 3-(5-(4-fluorophenyl)-1H-indol-3-yl)-1-methyl-1H-pyrrolo[2,3-c]pyridin-7-ol]
< 7.00 | CCC(=O)N(c1cc(-c2cn(C)c3c(=O)[nH]ccc23)cc2c1ccn2Cc1c(C)cccc1Cl)C1CC1 [Compound 78, N-(1-(2-chloro-6-methylbenzyl)-6-(7-hydroxy-1-methyl-1H-pyrrolo[2,3-c]pyridin-3-yl)-1H-indol-4-yl)-N-cyclopropylpropionamide]
> 7.00 | CC(C)C(=O)Nc1cc(-c2cn(C)c3c(=O)[nH]ccc23)cc2c1ccn2C(C)(c1ccccn1)c1ccccn1 [Compound 131, N-(1-(1,1-di(pyridin-2-yl)ethyl)-6-(1-methyl-7-oxo-6,7-dihydro-1H-pyrrolo[2,3-c]pyridin-3-yl)-1H-indol-4-yl)isobutyramide]
> 6.00 | CCS(=O)(=O)Nc1cc(-c2cn(C)c3c(O)nccc23)cc2c1ccn2[C@@H](c1ccccc1)C1CCOCC1 [Compound 92, (R)-N-(6-(7-hydroxy-1-methyl-1H-pyrrolo[2,3-c]pyridin-3-yl)-1-(phenyl(tetrahydro-2H-pyran-4-yl)methyl)-1H-indol-4-yl)ethanesulfonamide]
< 6.00 | CNS(=O)(=O)CCc1ccc(OCc2ccc(F)cc2)cc1C(=O)c1cn(C)c2c(O)nccc12 [Compound 13, 2-(4-((4-fluorobenzyl)oxy)-2-(7-hydroxy-1-methyl-1H-pyrrolo[2,3-c]pyridine-3-carbonyl)phenyl)-N-methylethane-1-sulfonamide]
